From patent publication US7642362B2, “Compounds as semaphorin inhibitors” (Dainippon Sumitomo Pharma Co., Ltd., priority 2002, dated 2010)

Key:
[1] = molecular target: T1, mouse semaphorin 3A (Sema3A) (Mus musculus, UniProt O08665); test: Suppressing action on the growth cone collapse activity of Sema3A in chick dorsal root ganglion culture; format: cell-based; details: E7 chick embryo dorsal root ganglions; compound added 1 hour before 3 units/ml mouse Sema3A; growth cone collapse rate after another 1 hour
T1 sequence (O08665 21-772): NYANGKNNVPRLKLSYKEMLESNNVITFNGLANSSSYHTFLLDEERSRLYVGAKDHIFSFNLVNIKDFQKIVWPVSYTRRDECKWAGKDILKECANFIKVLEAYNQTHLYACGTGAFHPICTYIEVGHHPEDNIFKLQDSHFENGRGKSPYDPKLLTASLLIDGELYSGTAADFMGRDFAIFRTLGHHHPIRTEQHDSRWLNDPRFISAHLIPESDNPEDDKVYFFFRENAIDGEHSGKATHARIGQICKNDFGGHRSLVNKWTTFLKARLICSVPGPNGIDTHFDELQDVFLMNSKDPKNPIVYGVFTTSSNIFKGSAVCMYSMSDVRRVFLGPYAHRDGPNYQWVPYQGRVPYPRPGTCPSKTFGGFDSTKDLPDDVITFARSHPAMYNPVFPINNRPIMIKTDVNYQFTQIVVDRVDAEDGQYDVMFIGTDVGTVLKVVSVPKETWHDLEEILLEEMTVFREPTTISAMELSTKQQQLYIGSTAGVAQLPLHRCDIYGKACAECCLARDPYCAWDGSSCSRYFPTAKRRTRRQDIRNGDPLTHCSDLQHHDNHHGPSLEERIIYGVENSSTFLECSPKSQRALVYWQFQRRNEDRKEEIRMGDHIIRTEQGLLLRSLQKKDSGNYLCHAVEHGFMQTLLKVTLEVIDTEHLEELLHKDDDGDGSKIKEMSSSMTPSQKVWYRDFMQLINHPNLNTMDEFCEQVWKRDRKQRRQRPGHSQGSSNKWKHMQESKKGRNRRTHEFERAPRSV
From the text: The growth cone collapse activity of semaphorin described above means an activity to make growth cones disappear. This activity is observed after performing the following steps: cultivating nerve cells (generally tissue explants of ganglions) for a given period of time in vitro until the extended neurites as well as the growth cones at the edge of said neurites can be observed; and then adding thereto a given concentration (e.g. about 3 unit/ml; 1 unit/ml is defined as a semaphorin concentration in which 50% of the growth cones are collapsed) of semaphorin and cultivating for another given period of time (e.g. one hour). In order to get the extended neurites and the growth cones at the edge of said neurites ready for the observation, the nerve cells are generally cultivated for 10 to 20 hours in vitro, which duration can be altered according to a nerve variant and culture conditions. When the growth cone collapse caused by semaphorin is suppressed by, for example, the addition of a compound to this experimental system at an appropriate concentration about one hour prior to the addition of semaphorin, then such compound is regarded as a semaphorin inhibitor, especially as a compound with suppressing action on the growth cone collapse activity of semaphorin.
A 96-well plate (Sumitomo Bakelite Co., Ltd.) pre-coated with polylysine was further coated with laminine (20 μg/ml of laminine, for 1 hour at room temperature). Each well was added with 100 μl of medium (F12 medium containing 10% bovine fetal serum, 20 ng/ml of NGF, 100 units/ml of penicillin and 100 μg/ml of streptomycin) which medium was then inoculated with dorsal root nerve ganglions excised from E7 (Embryonic day 7) chick embryo and cultured for 16 to 20 hours under 5% CO2 at 37° C. Subsequently, the object compounds were added to media at various concentrations and 3 units/ml of mouse semaphorin 3A (Sema3A) was added after cultivating for 1 hour. The cultures were further incubated for another 1 hour. Glutaraldehyde was quickly added therein after said 1 hour to make the final concentration 1%. The cultures were then left for 15 minutes at room temperature so that the tissue sections were fixed, and collapse rates of the growth cones were microscopically determined. IC50 values was defined as a concentration of each compound at which concentration the collapse rate C equals to(A+B)/2, wherein (A) % is the collapse rate of growth cone of the negative control group (neither compounds nor Sema3A was added); (B) % is the collapse rate of growth cone of the positive control group (compounds were not added but Sema3A was added); and (C) % is the collapse rate of growth cone of the test group (each one compound and Sema3A were added).

[2] = Solubility of the purified compounds in solvents; format: physicochemical
[3] = tested on: semaphorin; test: Semaphorin inhibitory activity (earlier finding of the inventors)
[4] = tested on: nerve regeneration; test: Nerve regeneration in vivo (earlier finding of the inventors)

SMILES	IC50 [1] [nM]	Solubility in DMSO [2]	Solubility in hexane [2]	Solubility in methanol [2]	Solubility in water [2]	Semaphorin inhibitory activity [3]	Promotion of nerve regeneration [4]
Cc1cc(=O)c2c(o1)-c1c(c3c(c(O)c1C(=O)O)OC1(C)Cc4oc5cc(O)c(O)c(C(=O)O)c5c(=O)c4C3O1)OC2 (centres unmarked) [SPF-3059-8]	3460	soluble	Insoluble	soluble	Insoluble	–	–
CC(=O)c1c(C)c(C(=O)C2COc3cc(O)c(O)c(C(=O)O)c3C2=O)cc2c(=O)c3c(C(=O)O)c(O)c(O)cc3oc12 (centres unmarked) [SPF-3059-1]	–	–	–	–	–	have semaphorin inhibitory activity	promote nerve regeneration in vivo
CC(=O)c1c2c(c3ccc4c(=O)c5c(C(=O)O)c(O)c(O)cc5oc4c3c1C)C(=O)C1(CC2)COc2cc(O)c(O)c(C(=O)O)c2C1=O (centres unmarked) [SPF-3059-38]	19.9	soluble	Insoluble	soluble	Insoluble	–	–
CC(=O)[C@]12c3c(cc(O)c(O)c3C(=O)O)OC[C@]13Cc1c(oc4cc(O)c(O)c(C(=O)O)c4c1=O)[C@H]2C(C)=C(O)C3=O (relative stereo) [SPF-3059-16]	861	soluble	Insoluble	soluble	Insoluble	–	–
CC(=O)c1c(C)c(-c2oc3cc(O)c(O)c(C(=O)O)c3c(=O)c2Cc2c(C)oc3c(c2=O)COc2cc(O)c(O)c(C(=O)O)c2-3)cc2c(=O)c3cc(O)c(O)cc3oc12 [SPF-3059-42]	78.1	soluble	Insoluble	soluble	Insoluble	–	–
CC(=O)C1=C2c3cc(O)c(O)cc3OCC2(C(=O)/C=C(/C)O)Cc2c1oc1cc(O)c(O)c(C(=O)O)c1c2=O (centres unmarked) [SPF-3059-40]	233	soluble	Insoluble	soluble	Insoluble	–	–
CC(=O)c1c(C)c(C(=O)c2coc3cc(O)c(O)c(C(=O)O)c3c2=O)cc2c(=O)c3c(O)cc(O)c(O)c3oc12 [SPF-3059-22]	912	soluble	Insoluble	soluble	Insoluble	–	–
CC1=Cc2oc3cc(O)c(O)c(C(=O)O)c3c(=O)c2C(c2c(C)oc3c(c2=O)COc2cc(O)c(O)c(C(=O)O)c2-3)O1 (centres unmarked) [SPF-3059-17]	225	soluble	Insoluble	soluble	Insoluble	–	–
CC(=O)c1cc(-c2c(C(C)=O)cc3c(=O)c4c(C(=O)O)c(O)c(O)cc4oc3c2C(C)=O)cc(C(=O)c2c(O)cc(O)c(O)c2C(=O)O)c1O [SPF-3059-23]	728	soluble	Insoluble	soluble	Insoluble	–	–
CC12Cc3oc4cc(O)c(O)c(C(=O)O)c4c(=O)c3C(O1)C1C(=O)C3=C(OC1(C)O2)c1c(cc(O)c(O)c1C(=O)O)OC3 (centres unmarked) [SPF-3059-19]	838	soluble	Insoluble	soluble	Insoluble	–	–
